Like-named read-outs stand apart in the source and are kept apart here.
Key:
Assay in all cases: DSF 100 kinase selectivity screen;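 for dTm: compound tested at 20 µM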
Type in all cases: binding
[1] = target: T1, ~100 representative kinases (Homo sapiens, UniProt P11309); details: protein PIM1; average of three replicates
T1 construct: Recombinant protein kinase domains with a concentration of 2 μM
Outline: (§1)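 Each kinase domain, at 2 μM, is mixed with 20 μM test compound and SYPRO Orange in Hepes (20 mM, pH 7.5) with 500 mM NaCl. Temperature is then raised at 3°C/min and fluorescence-monitored unfolding yields the melting temperature change, ΔTm in degrees Celsius.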

[2] = target: T2, ~100 representative kinases (Homo sapiens, UniProt P15735); details: protein PHKG2; average of three replicates
T2 construct: Recombinant protein kinase domains with a concentration of 2 μM
T2 sequence (P15735 1-406): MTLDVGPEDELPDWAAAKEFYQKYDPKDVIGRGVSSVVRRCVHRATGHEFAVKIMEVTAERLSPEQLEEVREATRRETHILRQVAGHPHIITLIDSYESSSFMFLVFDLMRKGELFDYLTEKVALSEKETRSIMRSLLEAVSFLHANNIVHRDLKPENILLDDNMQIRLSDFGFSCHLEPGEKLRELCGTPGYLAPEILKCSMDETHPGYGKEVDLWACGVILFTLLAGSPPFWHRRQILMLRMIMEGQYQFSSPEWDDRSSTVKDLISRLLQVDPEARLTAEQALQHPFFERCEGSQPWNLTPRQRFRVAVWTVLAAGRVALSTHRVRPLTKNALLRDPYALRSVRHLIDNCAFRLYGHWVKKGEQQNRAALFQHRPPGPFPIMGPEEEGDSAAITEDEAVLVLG
Outline: as §1

[3] = target: T3, ~100 representative kinases (Homo sapiens, UniProt P17948); details: protein FLT1; average of three replicates
T3 construct: Recombinant protein kinase domains with a concentration of 2 μM
Outline: as §1

[4] = target: T4, ~100 representative kinases (Homo sapiens, UniProt P45985); details: protein MAP2K4; average of three replicates
T4 construct: Recombinant protein kinase domains with a concentration of 2 μM
T4 sequence (P45985 1-399): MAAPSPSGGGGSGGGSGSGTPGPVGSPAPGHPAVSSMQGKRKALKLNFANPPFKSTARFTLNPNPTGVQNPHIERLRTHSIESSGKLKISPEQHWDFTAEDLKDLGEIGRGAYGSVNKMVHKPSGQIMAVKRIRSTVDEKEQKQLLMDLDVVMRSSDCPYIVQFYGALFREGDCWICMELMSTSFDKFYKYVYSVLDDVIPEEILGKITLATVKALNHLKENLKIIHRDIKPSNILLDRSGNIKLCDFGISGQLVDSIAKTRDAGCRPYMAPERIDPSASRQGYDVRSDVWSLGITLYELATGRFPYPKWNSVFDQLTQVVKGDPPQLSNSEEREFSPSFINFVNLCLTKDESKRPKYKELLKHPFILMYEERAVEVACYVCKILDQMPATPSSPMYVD
Outline: as §1

[5] = target: T5, ~100 representative kinases (Homo sapiens, UniProt P52564); details: protein MAP2K6; average of three replicates
T5 construct: Recombinant protein kinase domains with a concentration of 2 μM
T5 sequence (P52564 1-334): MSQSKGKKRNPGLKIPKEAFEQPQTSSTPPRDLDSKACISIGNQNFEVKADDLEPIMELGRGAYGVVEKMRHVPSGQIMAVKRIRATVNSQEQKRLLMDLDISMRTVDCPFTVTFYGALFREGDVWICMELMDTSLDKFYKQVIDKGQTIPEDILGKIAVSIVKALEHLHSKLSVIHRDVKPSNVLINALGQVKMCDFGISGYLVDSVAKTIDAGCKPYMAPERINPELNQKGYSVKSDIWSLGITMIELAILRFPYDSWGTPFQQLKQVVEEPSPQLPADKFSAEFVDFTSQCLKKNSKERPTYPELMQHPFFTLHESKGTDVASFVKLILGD
Outline: as §1

[6] = target: T6, ~100 representative kinases (Homo sapiens, UniProt P53355); details: Protein DAPK1; average of three replicates
T6 construct: Recombinant protein kinase domains with a concentration of 2 μM
Outline: as §1

[7] = target: T7, ~100 representative kinases (Homo sapiens, UniProt Q13557); details: Protein CAMK2D; average of three replicates
T7 construct: Recombinant protein kinase domains with a concentration of 2 μM
Outline: as §1

[8] = target: T8, ~100 representative kinases (Homo sapiens, UniProt Q16566); details: Protein CAMK4; average of three replicates
T8 construct: Recombinant protein kinase domains with a concentration of 2 μM
T8 sequence (Q16566 1-473): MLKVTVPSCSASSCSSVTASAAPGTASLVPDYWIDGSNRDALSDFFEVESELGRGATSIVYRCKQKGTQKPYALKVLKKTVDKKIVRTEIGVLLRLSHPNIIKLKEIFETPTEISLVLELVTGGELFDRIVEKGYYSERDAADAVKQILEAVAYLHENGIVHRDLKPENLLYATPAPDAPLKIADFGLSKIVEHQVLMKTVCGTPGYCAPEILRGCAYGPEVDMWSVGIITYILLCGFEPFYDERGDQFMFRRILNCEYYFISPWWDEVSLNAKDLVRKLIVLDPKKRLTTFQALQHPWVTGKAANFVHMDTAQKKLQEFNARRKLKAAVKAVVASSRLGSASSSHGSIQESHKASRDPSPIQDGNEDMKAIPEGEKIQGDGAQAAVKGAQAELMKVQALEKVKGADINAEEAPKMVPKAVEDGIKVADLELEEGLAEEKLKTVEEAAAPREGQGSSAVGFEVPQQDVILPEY
Outline: as §1

[9] = target: T9, ~100 representative kinases (Homo sapiens, UniProt Q86V86); details: protein PIM3; average of three replicates
T9 construct: Recombinant protein kinase domains with a concentration of 2 μM
Outline: as §1

[10] = target: T10, ~100 representative kinases (Homo sapiens, UniProt Q96SB4); details: Protein SRPK1; DSF; average of three replicates
T10 construct: Recombinant protein kinase domains with a concentration of 2 μM
Outline: as §1

[11] = test system: ~100 representative kinases; details: for dTm: Protein BRD, average of three replicates
Outline: as §1

[12] = number of proteins of the DSF panel with dTm >5K
[13] = selectivity score: # >5K divided by # of proteins tested in the DSF panel
[14] = number of kinases with thermal shift >5 K divided by total number of kinases screened

T7 sequence (Q13557 whole entry, the tested form may be a part): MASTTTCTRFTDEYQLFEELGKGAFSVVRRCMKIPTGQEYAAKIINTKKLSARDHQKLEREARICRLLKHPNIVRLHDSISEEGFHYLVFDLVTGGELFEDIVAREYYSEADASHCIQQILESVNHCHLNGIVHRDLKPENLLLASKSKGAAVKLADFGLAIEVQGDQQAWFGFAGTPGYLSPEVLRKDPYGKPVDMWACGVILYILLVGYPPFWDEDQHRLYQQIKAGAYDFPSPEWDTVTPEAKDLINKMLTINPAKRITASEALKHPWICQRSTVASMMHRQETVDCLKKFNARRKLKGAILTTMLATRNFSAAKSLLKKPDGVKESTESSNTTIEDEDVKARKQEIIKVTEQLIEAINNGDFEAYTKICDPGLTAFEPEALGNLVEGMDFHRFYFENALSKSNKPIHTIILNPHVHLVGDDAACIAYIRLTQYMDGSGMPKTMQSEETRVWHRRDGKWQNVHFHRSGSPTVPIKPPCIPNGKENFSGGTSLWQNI
T6 sequence (P53355 whole entry, the tested form may be a part): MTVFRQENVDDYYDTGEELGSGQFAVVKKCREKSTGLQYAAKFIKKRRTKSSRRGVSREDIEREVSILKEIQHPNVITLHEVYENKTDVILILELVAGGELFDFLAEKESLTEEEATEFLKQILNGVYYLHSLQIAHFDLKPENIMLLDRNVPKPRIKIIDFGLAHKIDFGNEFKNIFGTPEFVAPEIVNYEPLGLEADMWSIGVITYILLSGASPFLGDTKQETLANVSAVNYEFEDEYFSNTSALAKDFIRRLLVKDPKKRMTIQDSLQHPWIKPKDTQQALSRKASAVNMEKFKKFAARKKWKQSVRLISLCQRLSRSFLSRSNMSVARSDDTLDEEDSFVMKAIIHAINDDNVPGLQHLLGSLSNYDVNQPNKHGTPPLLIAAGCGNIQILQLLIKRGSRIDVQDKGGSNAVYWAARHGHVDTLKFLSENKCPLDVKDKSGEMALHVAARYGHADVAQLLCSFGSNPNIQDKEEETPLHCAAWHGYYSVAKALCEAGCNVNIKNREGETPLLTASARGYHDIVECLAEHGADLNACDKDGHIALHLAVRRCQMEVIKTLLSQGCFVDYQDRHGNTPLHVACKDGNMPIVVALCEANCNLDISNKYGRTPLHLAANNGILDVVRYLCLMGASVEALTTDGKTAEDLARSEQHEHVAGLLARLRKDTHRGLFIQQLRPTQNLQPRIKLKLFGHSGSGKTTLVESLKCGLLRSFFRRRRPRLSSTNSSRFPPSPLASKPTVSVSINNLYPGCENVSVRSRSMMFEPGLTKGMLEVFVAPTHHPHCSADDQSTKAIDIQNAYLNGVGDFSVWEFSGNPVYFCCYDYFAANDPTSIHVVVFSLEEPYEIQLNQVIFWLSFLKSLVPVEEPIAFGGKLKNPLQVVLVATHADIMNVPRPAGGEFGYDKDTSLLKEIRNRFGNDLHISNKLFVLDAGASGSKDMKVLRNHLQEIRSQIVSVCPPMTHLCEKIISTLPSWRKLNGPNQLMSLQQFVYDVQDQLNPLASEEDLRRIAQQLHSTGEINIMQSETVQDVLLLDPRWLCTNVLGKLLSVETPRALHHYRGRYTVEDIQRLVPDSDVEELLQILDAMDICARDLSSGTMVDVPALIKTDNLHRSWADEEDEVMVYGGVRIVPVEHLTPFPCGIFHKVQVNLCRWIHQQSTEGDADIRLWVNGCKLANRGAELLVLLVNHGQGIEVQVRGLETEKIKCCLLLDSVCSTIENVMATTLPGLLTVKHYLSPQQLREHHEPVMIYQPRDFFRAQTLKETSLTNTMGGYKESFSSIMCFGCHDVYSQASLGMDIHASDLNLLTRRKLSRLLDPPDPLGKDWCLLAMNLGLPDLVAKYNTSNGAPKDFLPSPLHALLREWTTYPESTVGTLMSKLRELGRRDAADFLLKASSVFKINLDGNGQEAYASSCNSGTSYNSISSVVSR
T10 sequence (Q96SB4 whole entry, the tested form may be a part): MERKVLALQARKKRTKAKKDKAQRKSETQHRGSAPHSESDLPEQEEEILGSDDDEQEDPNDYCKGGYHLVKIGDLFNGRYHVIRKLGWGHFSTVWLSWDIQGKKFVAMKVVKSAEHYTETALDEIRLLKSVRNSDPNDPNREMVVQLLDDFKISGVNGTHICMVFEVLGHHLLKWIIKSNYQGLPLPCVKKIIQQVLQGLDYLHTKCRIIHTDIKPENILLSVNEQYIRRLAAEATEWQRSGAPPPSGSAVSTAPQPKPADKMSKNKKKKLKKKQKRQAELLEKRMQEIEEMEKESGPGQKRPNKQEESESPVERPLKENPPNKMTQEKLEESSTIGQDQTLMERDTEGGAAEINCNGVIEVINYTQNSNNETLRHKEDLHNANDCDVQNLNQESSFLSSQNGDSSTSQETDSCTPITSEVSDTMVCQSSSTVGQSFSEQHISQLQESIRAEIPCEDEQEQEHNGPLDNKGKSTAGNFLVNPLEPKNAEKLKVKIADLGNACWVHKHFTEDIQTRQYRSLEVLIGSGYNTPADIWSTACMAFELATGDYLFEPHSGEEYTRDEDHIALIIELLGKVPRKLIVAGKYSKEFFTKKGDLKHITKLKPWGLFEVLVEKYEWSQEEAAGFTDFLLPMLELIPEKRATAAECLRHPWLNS
T3 sequence (P17948 27-1338): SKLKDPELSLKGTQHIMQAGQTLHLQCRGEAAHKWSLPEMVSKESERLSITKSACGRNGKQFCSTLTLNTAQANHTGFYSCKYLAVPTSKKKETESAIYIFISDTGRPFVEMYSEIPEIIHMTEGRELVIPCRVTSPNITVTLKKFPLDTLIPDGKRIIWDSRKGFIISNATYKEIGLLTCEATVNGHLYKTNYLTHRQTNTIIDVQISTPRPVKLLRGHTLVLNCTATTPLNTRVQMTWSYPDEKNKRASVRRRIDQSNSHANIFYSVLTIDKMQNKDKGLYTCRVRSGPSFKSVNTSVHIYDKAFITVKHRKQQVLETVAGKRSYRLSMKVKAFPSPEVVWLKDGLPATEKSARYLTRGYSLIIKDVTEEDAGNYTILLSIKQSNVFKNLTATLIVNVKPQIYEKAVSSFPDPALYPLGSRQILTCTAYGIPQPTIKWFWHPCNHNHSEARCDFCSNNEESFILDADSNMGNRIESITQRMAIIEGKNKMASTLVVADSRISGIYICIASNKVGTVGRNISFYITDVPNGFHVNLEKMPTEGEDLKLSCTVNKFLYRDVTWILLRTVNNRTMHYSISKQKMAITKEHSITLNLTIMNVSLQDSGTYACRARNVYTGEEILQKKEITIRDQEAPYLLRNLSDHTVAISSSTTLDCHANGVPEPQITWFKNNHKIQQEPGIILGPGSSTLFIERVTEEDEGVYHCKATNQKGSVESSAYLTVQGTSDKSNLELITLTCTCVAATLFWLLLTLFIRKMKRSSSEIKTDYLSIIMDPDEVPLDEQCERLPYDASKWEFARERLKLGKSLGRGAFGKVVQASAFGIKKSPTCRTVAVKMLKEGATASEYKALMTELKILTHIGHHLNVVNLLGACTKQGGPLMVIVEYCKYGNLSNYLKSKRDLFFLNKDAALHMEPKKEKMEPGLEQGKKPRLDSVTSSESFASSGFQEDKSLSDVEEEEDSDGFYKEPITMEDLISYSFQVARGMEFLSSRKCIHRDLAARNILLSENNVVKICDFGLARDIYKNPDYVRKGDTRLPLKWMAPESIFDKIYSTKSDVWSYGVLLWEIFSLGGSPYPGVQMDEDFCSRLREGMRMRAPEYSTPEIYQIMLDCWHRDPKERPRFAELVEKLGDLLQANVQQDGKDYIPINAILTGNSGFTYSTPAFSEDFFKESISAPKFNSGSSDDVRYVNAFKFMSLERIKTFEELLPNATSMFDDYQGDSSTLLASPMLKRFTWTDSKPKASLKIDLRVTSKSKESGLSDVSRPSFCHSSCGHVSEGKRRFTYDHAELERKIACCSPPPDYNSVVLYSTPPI
T1 sequence (P11309 whole entry, the tested form may be a part): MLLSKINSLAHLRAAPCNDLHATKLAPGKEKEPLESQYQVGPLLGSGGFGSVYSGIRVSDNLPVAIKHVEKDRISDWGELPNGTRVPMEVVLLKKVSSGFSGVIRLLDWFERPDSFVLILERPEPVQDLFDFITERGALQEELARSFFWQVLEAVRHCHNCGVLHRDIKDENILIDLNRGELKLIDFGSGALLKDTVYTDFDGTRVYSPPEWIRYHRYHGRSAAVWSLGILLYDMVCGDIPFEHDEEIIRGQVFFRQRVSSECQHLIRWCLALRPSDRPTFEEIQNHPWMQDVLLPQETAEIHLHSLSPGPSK

| SMILES | dTm [1] [K] | dTm [2] [K] | dTm [3] [K] | dTm [4] [K] | dTm [5] [K] | dTm [6] [K] | dTm [7] [K] | dTm [8] [K] | dTm [9] [K] | dTm [10] [K] | dTm [11] [K] | # >5K [11, 12] | S(5K) [11, 13] | S(5K) [11, 14] | S (5 K) / share of screened kinases stabilized ([11]; DSF selectivity panel, thermal shift >5 K) [%] | # >5K [11] | S(5K) [11] |
| --- | --- | --- | --- | --- | --- | --- | --- | --- | --- | --- | --- | --- | --- | --- | --- | --- | --- |
| Cc1ccc(C(=O)Nc2ccc(CN3CCN(C)CC3)c(C(F)(F)F)c2)cc1C#Cc1cnc2[nH]ncc2c1 [GZD-824, reference compound] | -0.44 | -0.11 | 22.54 | 1.62 | 0.96 | 0.59 | -0.21 | 0.32 | 0.45 | 13.60 | -0.37 |  |  |  |  | 31 | 0.313 |
| O=C(Nc1cccc(-c2c[nH]c3ncnc(N4CCOCC4)c23)c1)C1(C(=O)Nc2cccc3c2CCC3)CC1 [Compound 11] | 1.06 | 0.68 | 1.96 | 5.91 | 2.82 | -0.99 | 0.60 | 2.09 | 0.61 | 6.49 | 1.00 | 16 | 0.154 | 0.15 |  |  |  |
| O=C(Nc1cccc(-c2c[nH]c3ncnc(N4CCOCC4)c23)c1)C1(C(=O)Nc2ccc(F)c(Cl)c2)CC1 [Compound 18] | 5.41 | 3.01 | 0.43 | 6.47 | 2.96 | -0.23 | 0.66 | 3.34 | 1.00 | 12.10 | 0.45 | 36 | 0.360 | 0.36 |  |  |  |
| Cc1ccc(NC(=O)C2(C(=O)Nc3cccc(-c4c[nH]c5ncnc(N6CCOCC6)c45)c3)CC2)cc1 [Compound 14] | 1.13 | 0.65 | 4.17 | 5.95 | 1.56 | -0.92 | 0.26 | 1.05 | 0.71 | 7.30 | -1.11 | 22 | 0.220 | 0.22 |  |  |  |
| O=C(Nc1ccc(Cl)cc1)C1(C(=O)Nc2cccc(-c3c[nH]c4ncnc(N5CCOCC5)c34)c2)CC1 [Compound 13] | 4.69 | 3.23 | 3.57 | 6.61 | 2.65 | 0.12 | 1.12 | 3.78 | 1.90 | 12.04 | 1.19 | 37 | 0.370 | 0.37 |  |  |  |
| O=C(Nc1ccc(F)cc1)C1(C(=O)Nc2cccc(-c3c[nH]c4ncnc(N5CCOCC5)c34)c2)CC1 [Compound 2] | 2.13 | 2.27 | 3.90 | 4.96 | 2.20 | -0.33 | 0.07 | 2.18 | -0.94 | 10.56 | -1.00 | 28 | 0.280 | 0.28 |  |  |  |
| COc1cc(S(C)(=O)=O)ccc1Nc1nc(N(C)C)c2c(Cl)c[nH]c2n1 [Compound 37] | -0.49 | 3.65 | -0.32 | 4.74 | 5.52 | 0.93 | 0.41 | -0.60 | 0.48 | 0.39 | 0.52 | 5 | 0.050 | 0.05 |  |  |  |

Continued, in another order:

| dTm [1] [K] | dTm [2] [K] | dTm [3] [K] | dTm [4] [K] | dTm [5] [K] | dTm [6] [K] | dTm [7] [K] | dTm [8] [K] | dTm [9] [K] | dTm [10] [K] | dTm [11] [K] | # >5K [11, 12] | S(5K) [11, 13] | S(5K) [11, 14] | S (5 K) / share of screened kinases stabilized ([11]; DSF selectivity panel, thermal shift >5 K) [%] | SMILES | # >5K [11] | S(5K) [11] |
| --- | --- | --- | --- | --- | --- | --- | --- | --- | --- | --- | --- | --- | --- | --- | --- | --- | --- |
| 0.44 | 1.11 | 1.69 | 1.26 | 0.65 | 1.29 | -0.06 | 0.15 | 0.92 | 0.15 | -0.21 | 3 | 0.029 |  |  | CCNc1nc(Nc2cc(F)c(C(=O)N3CCOCC3)cc2OC)ncc1C(F)(F)F [GNE-7915] |  |  |
| -0.51 | 7.95 | 0.33 | 10.31 | 9.56 | 3.45 | 3.01 | 1.63 | -0.33 | 3.22 | -0.29 | 14 | 0.139 | 0.14 |  | COc1cc(C(=O)N2CCOCC2)c(F)cc1Nc1nc(N(C)C)c2c(Cl)c[nH]c2n1 [Compound 36] |  |  |
| -0.51 | -0.08 | 2.53 | 3.98 | 0.82 | -0.99 | -0.55 | -0.20 | 0.23 | 3.35 | -2.19 | 10 | 0.100 | 0.10 |  | COc1ccc(NC(=O)C2(C(=O)Nc3cccc(-c4c[nH]c5ncnc(N6CCOCC6)c45)c3)CC2)cc1 [Compound 16] |  |  |
| 0.58 | -0.00698 | 4.10 | 5.80 | 3.14 | -1.06 | -0.18 | 0.42 | 0.00331 | 3.79 | -0.87 | 12 | 0.120 | 0.12 |  | Cc1cc(F)ccc1NC(=O)C1(C(=O)Nc2cccc(-c3c[nH]c4ncnc(N5CCOCC5)c34)c2)CC1 [Compound 24] |  |  |
| 1.29 | 0.60 | 2.22 | 5.24 | 2.03 | -0.65 | 1.25 | 1.91 | 0.88 | 4.06 | 1.43 | 15 | 0.144 | 0.14 | 14 | O=C(Nc1cccc(-c2c[nH]c3ncnc(N4CCOCC4)c23)c1)C1(C(=O)Nc2ccc(F)c(Br)c2F)CC1 [Compound 26] |  |  |

Reference: paper PMC12136037, “Type II kinase inhibitors that target Parkinson’s disease–associated LRRK2” (Science Advances, 2025)
